Key:
[1] = biological target: T1, mushroom tyrosinase (mTYR) (Agaricus bisporus, UniProt C7FF04); test: Inhibition of mushroom tyrosinase diphenolase reaction (substrate L-dopa, dopachrome at 475 nm); type: biochemical; settings: for Vmax^app / IC50: 30 °C; for Vmax^app: pH 6.8, L-dopa; for IC50: IC50 Diphenolase; for Ki: KI Competitive; for inhibition mode, diphenolase: from M-M and Lineweaver–Burk plots
T1 construct: purchased Sigma-Aldrich (Milan, Italy)
Experimental: (§1) Measurements were performed at 30 °C in phosphate buffer (50 mM, pH 6.8) in polystyrene low-volume cuvettes (1.5 mL, l = 1 cm) with a double-beam spectrophotometer. […] The reaction was monitored at 475 nm for up to 60 min, following dopachrome formation. Initial velocity (V = ΔA/Δmin) was converted in μM/min according to Lambert–Beer law using the molar extinction coefficient ε = 3700 M^−1cm^−1 for dopachrome at λmax = 475 nm. Michaelis–Menten parameters (Km e Vmax) were obtained by processing initial velocity vs. substrate concentration data by non-linear fitting to M-M Equation (4), using Sigmaplot 11.0 (Systat Software Inc., San Jose, CA, USA). Linearized Lineweaver–Burk Equation (5) was used to identify the inhibition mode. In both equations, V indicates the measured initial rate of reaction, [S] is the initial substrate concentration, while Vmax and Km are, respectively, the maximum reaction rate (at saturating substrate concentration) and the M-M constant, with the substrate concentration yielding half-maximum rate.
(10) KI=[I]/α−1 and KI′=[I]/α^′−1 where (11) α=(Kmapp × α^′)/Km and α^′=Vmax/Vmaxapp
(§2) Determination of M-M inhibition constants KI and KI′, along with assignment of the inhibition mode, is the most reliable method to accurately quantify the potency of enzyme inhibitors, as it is independent of the experimental settings, like substrate and enzyme concentrations.

mTYR = test: Stability toward air and mTYR, oxygen consumption; settings: 0.1 mM, pH 6.8, 30 °C, axes [O2] M vs Time / s
[2] = Inhibited autoxidation of methyl linoleate in Triton X-100 micelles (O2 uptake kinetics); settings: for n (stoichiometric factor of peroxyl radical trapping): MeLin/Triton X-100 micelles
Experimental: Autoxidation studies were performed as previously described, with slight modifications. In a typical experiment, 2.5 mL of air-saturated buffered (PBS, 50 mM, pH 7.4) aqueous dispersion of MeLin (final concentration 2.74 mM) in Triton™ X-100 (final concentration 16 mM) micelles were prepared by vortex mixing. A fresh stock solution of AAPH was added (final concentration 2.5 mM), immediately followed by addition (5–30 μL) of a stock solution of the antioxidant in acetonitrile (final concentration of 1–20 μM) and by additional vortex mixing (5 s). The mixture was sealed in a 2 mL glass vial provided with a PTFE-coated stirring bar and capped with the O2 sensor. The sample was equilibrated at 37 °C in a thermostatted bath equipped with a sealed magnetic stirrer, and oxygen concentration was monitored with time as previously described. Oxygen consumption in the absence of antioxidants was compared with that recorded in the presence of butein, homobutein, or α-tocopherol (α-TOH) as the reference antioxidant. […]. The stoichiometric factor n was determined from the length of the inhibited period τ by Equation (3). The rate of initiation Ri was determined in preliminary experiments using α-TOH as the inhibitor (n = 2) by Equation (3). (1) −d[O2]/dt=kp[RH]Ri/nkinh[AH]+Ri (2) R0/Rinh−Rinh/R0=nkinh[AH]/2ktRi (3) n=Riτ/[AH]
To study the antioxidant activity of butein and homobutein on quantitative grounds, we performed inhibited autoxidation studies using biomimetic neutral micelles of methyl linoleate (MeLin) in aqueous Triton™ X-100 (with 50 mM PBS, pH 7.4, 37 °C), since it is a well-validated model we and others used in previous studies. The reaction kinetics was followed by monitoring oxygen consumption via miniaturized NIR-fluorescence-quenching O2 probes, according to a previously validated protocol, both in the absence and in the presence of different concentrations of butein or homobutein. The reaction was initiated thermally in the aqueous phase by the controlled decomposition of the azo compound AAPH so as to clearly distinguish the chain-breaking mechanism from other efficacies based on interference with the initiation process (e.g., the Fenton reaction by metal chelation) and α-TOH was used as the reference antioxidant.

[3] = biological target: T1, mushroom tyrosinase (mTYR); test: Inhibition of mushroom tyrosinase monophenolase reaction (substrate L-tyrosine, dopachrome at 475 nm); type: biochemical; settings: for Vmax^app / IC50: 30 °C; for Vmax^app: pH 6.8, L-tyrosine; for IC50: IC50 Monophenolase; for Ki: KI Competitive; for Ki / KI′ Uncompetitive / KI′ Calc. from Km / KI′ Calc. from Vmax: monophenolase; for inhibition mode, monophenolase: from M-M and Lineweaver–Burk plots
Experimental: as §1, §2

[4] = diphenolase, average over inhibitor concentrations
[5] = diphenolase, inhibitor 0.175 µM
[6] = AAPH (2.5 mM) initiated autoxidation of MeLin/Triton X-100 micelles, 37 °C, pH 7.4
[7] = MeLin in Triton X-100 micelles, pH 7.4, 37 °C
[8] = average over inhibitor concentrations

T1 sequence (C7FF04 1-392): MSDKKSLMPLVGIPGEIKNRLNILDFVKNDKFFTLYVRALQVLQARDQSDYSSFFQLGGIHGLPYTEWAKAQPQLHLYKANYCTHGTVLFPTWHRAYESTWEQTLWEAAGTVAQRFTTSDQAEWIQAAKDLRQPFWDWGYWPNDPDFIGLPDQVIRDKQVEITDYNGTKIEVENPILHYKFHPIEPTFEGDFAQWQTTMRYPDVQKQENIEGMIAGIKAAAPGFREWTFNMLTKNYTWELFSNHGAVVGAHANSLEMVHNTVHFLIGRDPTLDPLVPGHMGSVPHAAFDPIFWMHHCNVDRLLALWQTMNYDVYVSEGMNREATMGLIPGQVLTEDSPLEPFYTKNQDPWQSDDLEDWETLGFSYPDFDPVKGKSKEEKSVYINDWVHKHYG

Structure (SMILES): COc1cc(/C=C/C(=O)c2ccc(O)cc2O)ccc1O [Homobutein, (E)-1-(2,4-dihydroxyphenyl)-3-(4-hydroxy-3-methoxyphenyl)prop-2-en-1-one]
- Vmax^app ([1]; inhibitor 0.175 µM): 11.48 ± 0.22 µM/min
- Vmax^app ([1]; inhibitor 0.70 µM): 11.30 ± 0.88 µM/min
- Vmax^app ([1]; inhibitor 1.4 µM): 11.10 ± 0.21 µM/min
- Vmax^app ([1]; inhibitor 5.6 µM): 10.84 ± 0.26 µM/min
- IC50 ([1]; pH 6.8, L-dopa 0.05 mM): 3.04 ± 0.84 µM
- IC50 ([1]; pH 6.8, L-dopa 0.125 mM): 3.83 ± 0.94 µM
- IC50 ([1]; pH 6.8, L-dopa 0.25 mM): 5.6 ± 1.07 µM
- IC50 ([1]; pH 6.8, L-dopa 0.50 mM): 7.57 ± 1.11 µM
- IC50 ([1]; pH 6.8, L-dopa 1.00 mM): 12.4 ± 2 µM
- Ki [1, 4]: 2.5 ± 1.56 µM
- Ki [1, 5]: 1.28 µM
- Ki ([1]; diphenolase, inhibitor 0.70 µM): 1.54 µM
- Ki ([1]; diphenolase, inhibitor 1.4 µM): 2.46 µM
- Ki ([1]; diphenolase, inhibitor 5.6 µM): 4.72 µM
- lowest concentration with clear inhibition detectable ([1]; diphenolase): 175 nM
- KI′ Uncompetitive [1, 4]: 38.24 ± 27.81 µM
- KI′ Uncompetitive [1, 5]: 16.75 µM
- KI′ Uncompetitive ([1]; diphenolase, inhibitor 0.70 µM): 26.38 µM
- KI′ Uncompetitive ([1]; diphenolase, inhibitor 1.4 µM): 30.83 µM
- KI′ Uncompetitive ([1]; diphenolase, inhibitor 5.6 µM): 79.01 µM
- inhibition mode, diphenolase [1]: nearly competitive
- oxygen consumption, zero order regression slope b[1] (mTYR; with tyrosinase 7 U/ml): -3.664e-9
- oxygen consumption, zero order regression slope b[1] (mTYR; without enzyme): -2.859e-9
- kinh (inhibition rate constant) [2, 6]: 2.8 ± 0.9 10^3 M^−1s^−1
- kinh (inhibition rate constant) [2, 7]: (2.8 ± 0.9) × 10^3 M^−1s^−1
- kinh (inhibition rate constant) ([2]; MeLin in Triton X-100 micelles, pH 7.4, 37 °C, listed as homobutein): 2800 M⁻¹ s⁻¹
- Vmax^app ([3]; inhibitor 1.4 µM): 3.83 ± 0.04 µM/min
- Vmax^app ([3]; inhibitor 2.8 µM): 3.78 ± 0.05 µM/min
- Vmax^app ([3]; inhibitor 5.6 µM): 3.63 ± 0.06 µM/min
- Vmax^app ([3]; inhibitor 11.2 µM): 3.15 ± 0.03 µM/min
- IC50 ([3]; pH 6.8, L-tyrosine 0.05 mM): 4.01 ± 0.66 µM
- IC50 ([3]; pH 6.8, L-tyrosine 0.125 mM): 4.58 ± 0.88 µM
- IC50 ([3]; pH 6.8, L-tyrosine 0.25 mM): 6.06 ± 0.95 µM
- IC50 ([3]; pH 6.8, L-tyrosine 0.50 mM): 8.75 ± 1.18 µM
- IC50 ([3]; pH 6.8, L-tyrosine 1.00 mM): 14.8 ± 1.05 µM
- Ki [3, 8]: 2.76 ± 0.7 µM
- Ki ([3]; inhibitor 1.4 µM): 2.19 µM
- Ki ([3]; inhibitor 2.8 µM): 2.24 µM
- Ki ([3]; inhibitor 5.6 µM): 2.94 µM
- Ki ([3]; inhibitor 11.2 µM): 3.67 µM
- inhibition mode, monophenolase [3]: nearly competitive
- KI′ Uncompetitive ([3]; mixed-type treatment, average): 140.53 ± 94.57 µM
- KI′ Uncompetitive ([3]; mixed-type treatment, inhibitor 1.4 µM): 268.10 µM
- KI′ Uncompetitive ([3]; mixed-type treatment, inhibitor 2.8 µM): 151.20 µM
- KI′ Uncompetitive ([3]; mixed-type treatment, inhibitor 5.6 µM): 92.40 µM
- KI′ Uncompetitive ([3]; mixed-type treatment, inhibitor 11.2 µM): 50.40 µM

Structure (SMILES): O=C(/C=C/c1ccc(O)c(O)c1)c1ccc(O)cc1O [Butein, (E)-1-(2,4-dihydroxyphenyl)-3-(3,4-dihydroxyphenyl)prop-2-en-1-one]
- Vmax^app ([1]; inhibitor 1.4 µM): 10.93 ± 0.22 µM/min
- Vmax^app ([1]; inhibitor 2.8 µM): 10.60 ± 0.88 µM/min
- Vmax^app ([1]; inhibitor 5.6 µM): 8.17 ± 0.21 µM/min
- Vmax^app ([1]; inhibitor 11.2 µM): 7.42 ± 0.26 µM/min
- IC50 ([1]; pH 6.8, L-dopa 0.05 mM): 3.76 ± 0.96 µM
- IC50 ([1]; pH 6.8, L-dopa 0.125 mM): 4.12 ± 1.39 µM
- IC50 ([1]; pH 6.8, L-dopa 0.25 mM): 5.38 ± 0.9 µM
- IC50 ([1]; pH 6.8, L-dopa 0.50 mM): 9.31 ± 0.85 µM
- IC50 ([1]; pH 6.8, L-dopa 1.00 mM): 15.2 ± 1.25 µM
- Ki [1, 4]: 3.3 ± 0.75 µM
- Ki ([1]; diphenolase, inhibitor 1.4 µM): 3.21 µM
- Ki ([1]; diphenolase, inhibitor 2.8 µM): 2.59 µM
- Ki ([1]; diphenolase, inhibitor 5.6 µM): 3.07 µM
- Ki ([1]; diphenolase, inhibitor 11.2 µM): 4.35 µM
- KI (competitive) lower than KI′ (uncompetitive) ([1]; diphenolase): about 5 fold
- KI′ Uncompetitive [1, 4]: 18.75 ± 5.15 µM
- KI′ Uncompetitive ([1]; diphenolase, inhibitor 1.4 µM): 18.04 µM
- KI′ Uncompetitive ([1]; diphenolase, inhibitor 2.8 µM): 25.24 µM
- KI′ Uncompetitive ([1]; diphenolase, inhibitor 5.6 µM): 12.68 µM
- KI′ Uncompetitive ([1]; diphenolase, inhibitor 11.2 µM): 19.05 µM
- inhibition mode, diphenolase [1]: mixed-type
- oxygen consumption, zero order regression slope b[1] (mTYR; with tyrosinase 7 U/ml): -2.789e-9
- oxygen consumption, zero order regression slope b[1] (mTYR; without enzyme): -1.989e-9
- kinh (inhibition rate constant) [2, 6]: 29.8 ± 9.2 10^3 M^−1s^−1
- kinh (inhibition rate constant) [2, 7]: (3.0 ± 0.9) × 10^4 M^−1s^−1
- kinh (inhibition rate constant) ([2]; MeLin in Triton X-100 micelles, pH 7.4, 37 °C, listed as butein): 30000 M⁻¹ s⁻¹
- n (stoichiometric factor of peroxyl radical trapping) ([2]; 37 °C, pH 7.4): 3.7 ± 1.1
- n (stoichiometric factor of peroxyl radical trapping) ([2]; 37 °C, pH 7.4, listed as butein): 3.7
- Vmax^app ([3]; inhibitor 1.4 µM): 3.24 ± 0.07 µM/min
- Vmax^app ([3]; inhibitor 2.8 µM): 3.02 ± 0.05 µM/min
- Vmax^app ([3]; inhibitor 5.6 µM): 2.21 ± 0.04 µM/min
- Vmax^app ([3]; inhibitor 11.2 µM): 1.95 ± 0.07 µM/min
- IC50 ([3]; pH 6.8, L-tyrosine 0.05 mM): 45.1 ± 18.3 µM
- IC50 ([3]; pH 6.8, L-tyrosine 0.125 mM): 35.6 ± 28.4 µM
- IC50 ([3]; pH 6.8, L-tyrosine 0.25 mM): 12.9 ± 3.22 µM
- IC50 ([3]; pH 6.8, L-tyrosine 0.50 mM): 12.3 ± 2.52 µM
- IC50 ([3]; pH 6.8, L-tyrosine 1.00 mM): 10.9 ± 2.19 µM
- inhibition mode, monophenolase [3]: uncompetitive
- inhibition mode, monophenolase ([3]; listed as BU): reversible uncompetitive
- KI′ Calc. from Km [3, 8]: 10.74 ± 3.36 µM
- KI′ Calc. from Vmax [3, 8]: 9.17 ± 2.01 µM
- KI′ Uncompetitive ([3]; averaged over both calculation methods): 9.95 µM
- KI′ Uncompetitive ([3]; averaged over both calculation methods, listed as BU): 9.95 ± 2.69 µM
- KI′ Calc. from Km ([3]; inhibitor 1.4 µM): 7.47 µM
- KI′ Calc. from Vmax ([3]; inhibitor 1.4 µM): 7.44 µM
- KI′ Calc. from Km ([3]; inhibitor 2.8 µM): 10.50 µM
- KI′ Calc. from Vmax ([3]; inhibitor 2.8 µM): 10.19 µM
- KI′ Calc. from Km ([3]; inhibitor 5.6 µM): 9.60 µM
- KI′ Calc. from Vmax ([3]; inhibitor 5.6 µM): 7.55 µM
- KI′ Calc. from Km ([3]; inhibitor 11.2 µM): 15.40 µM
- KI′ Calc. from Vmax ([3]; inhibitor 11.2 µM): 11.49 µM

Source: PMC10525132, “Potent Antioxidant and Anti-Tyrosinase Activity of Butein and Homobutein Probed by Molecular Kinetic and Mechanistic Studies” (Antioxidants, 2023)
